Laboratory results from PubChem BioAssay AID1963846 (Molecular Pharmacology Branch, DTP, NCI, 2024).
Values joined by “and” are separate entries in the source; they are usually repeats but may differ in a detail not shown here. Equal entries are not always repeated.

Tested on: 454973-116-R2-J3-PDC complex spheroid viability
Experiment: Anticancer human tumor 454973-116-R2-J3-PDC patient-derived pancreatic carcinoma cell line growth inhibition [POLQ]
Settings: for viability, T/C: stronger effect = lower value
Description: Multicellular complex tumor spheroid response to Polymerase (POL) inhibitors (novobiocin, ART-558, RP6685) in combination with a variety of drugs and investigational agents in selected tumor cell lines
The POL inhibitors (novobiocin, ART-558, and RP6685) were evaluated both individually and in combination with standard of care and investigational anticancer small molecules within a complex spheroid model of solid tumors. . Complex spheroids include a stromal component modeled by human endothelial cells (HUVEC) and fibroblasts modeled by human mesenchymal stem cells (MSCs). The concentration ranges selected for each drug and investigational agent were based upon clinically achievable concentrations if the clinical Cmax of the agent was known.
Compounds. The drugs and investigational agents: novobiocin (NSC847541), ART-558 (NSC835418), RP-6685 (NSC848927), peposertib (NSC802822), ceralasertib (NSC780249), elimusertib (NSC800525), camonsertib (NSC841442), AZD-1390 (NSC803789), olaparib (NSC753686), talazoparib (NSC767125), rucaparib (NSC756644), sotorasib (NSC818433), MRTX-1133 (NSC836407), SN-38 (NSC673596), topotecan (NSC609699), epotoside (NSC141540), doxorubicin (NSC123127), gemcitabine (NSC613327), 5-fluorouracil (NSC19893), paclitaxel (NSC125973), vemurafenib (NSC761431), MSA-2 (NSC828583), SN-011 (NSC837082), adavosertib (NSC754352), prexasertib (NSC758257), carboplatin (NSC241240) and oxaliplatin (NSC266046), were obtained from the National Cancer Institute (NCI) Developmental Therapeutics Program Chemical Repository (21). The FDA-approved anticancer drug set is available from the Developmental Therapeutics Program at https://dtp.cancer.gov/organization/dscb/obtaining/. […] The stock solutions were prepared in dimethyl sulfoxide (DMSO, Sigma-Aldrich, St. Louis, MO, cat. D2650), except for the platinum compounds which were prepared in saline (Quality Biological, Gaithersburg, MD, cat. 114-055-101), at 800-fold the tested concentration and stored at -70 degrees C prior to their use. All drugs and investigational agents were tested over a range starting from a high concentration at or near the clinical Cmax and decreasing in half-log increments. If the clinical Cmax for an agent had not been determined, the highest concentration tested was 10 microM, except for SN-38, which was tested at a high concentration of 1 microM.
Cell Culture. All cells were maintained in an incubator at 37 degrees C and 5% CO2 with 95% humidity. The PDC lines were cultured according to standard operating procedures established by the NCI PDMR (https://pdmr.cancer.gov). Table 3 of the manuscript, lists the cell lines along with the number of the three cell types plated to form the mct-spheroids and media for tumor cell growth. After thawing, all PDC lines, except 997537-175-T-J1-PDC and 415267-285-R-J2-PDC, were cultured in Matrigel-coated flasks prepared with a working solution of 1X Ham's F-12 nutrient mix, without supplementation (Thermo Fisher Scientific, cat. 11765054), 100 U/mL penicillin-streptomycin (Thermo Fisher Scientific, cat. 15140122), and 2.5% Matrigel (Corning Inc., Corning, NY, cat. 354248) for the first three passages. The two PDC lines 997537-175-T-J1-PDC and 415267-285-R-J2-PDC were cultured on uncoated flasks. The 857933-349-R-J2-PDC line was cultured in 6C/Colon 1B media containing advanced DMEM/F-12 (Thermo Fisher Scientific, cat. 12634028), 10 mM HEPES (Thermo Fisher Scientific, cat. 15630080), 1X GlutaMAX supplement (Thermo Fisher Scientific, cat. 35050061), 0.1 mg/mL primocin (InvivoGen, San Diego, CA, cat. ant-pm-2), 10% defined fetal bovine serum, heat inactivated (HyClone Laboratories Inc., Logan, UT, cat. SH30070.03HI), 50% L-WRN conditioned media (ATCC, cat. CRL-3276), 1.25 mM N-Acetyl-L-cysteine (Sigma-Aldrich, cat. A9165), 10 mM nicotinamide (Sigma-Aldrich, cat. N0636), 1X B-27 supplement (Thermo Fisher Scientific, cat. 17504044), 1X N-2 supplement (Thermo Fisher Scientific, cat. […]

[1] = curve of first compound, second compound 0.0316 µM
[2] = curve of first compound, second compound 0.1 µM
[3] = curve of first compound, second compound 0.316 µM
[4] = curve of first compound, second compound 1 µM
[5] = curve of first compound, second compound 3.16 µM
[6] = curve of first compound, second compound 10 µM
[7] = second compound 0.0316 µM, first compound 0.0316 µM
[8] = second compound 0.0316 µM, first compound 0.1 µM
[9] = second compound 0.1 µM, first compound 0.0316 µM
[10] = second compound 0.1 µM, first compound 0.1 µM
[11] = second compound 0.316 µM, first compound 0.0316 µM
[12] = second compound 0.316 µM, first compound 0.1 µM
[13] = second compound 1 µM, first compound 0.0316 µM
[14] = second compound 1 µM, first compound 0.1 µM
[15] = second compound 3.16 µM, first compound 0.0316 µM
[16] = second compound 3.16 µM, first compound 0.1 µM
[17] = second compound 10 µM, first compound 0.0316 µM
[18] = second compound 10 µM, first compound 0.1 µM
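Note: spheroids exposed to drugs for seven days before measurement.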
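Throughout, for viability, T/C: percent viability relative to DMSO vehicle control wells taken as 100%.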

## CCc1cc2c(N3CCc4c(cc(Cn5ccnc5)cc4-c4cn(C)nc4C(F)(F)F)C3=O)ccnc2c(OC)n1 + Nc1ccc(C#CCN(C(=O)Cc2ncc(C(F)(F)F)cc2C(F)(F)F)c2ccc(F)cc2)nn1
[1]
  IC50: > 10000 nM
[2]
  IC50: > 10000 nM
[3]
  IC50: > 10000 nM
[4]
  IC50: > 10000 nM
[5]
  IC50: > 10000 nM
[6]
  IC50: > 10000 nM
[7]
  viability, T/C: 119%
[8]
  viability, T/C: 91.5%
Second compound 0.0316 µM, first compound 0.316 µM
  viability, T/C: 84.1%
Second compound 0.0316 µM, first compound 1 µM
  viability, T/C: 78.7%
Second compound 0.0316 µM, first compound 3.16 µM
  viability, T/C: 72.4%
Second compound 0.0316 µM, first compound 10 µM
  viability, T/C: 63.3%
[9]
  viability, T/C: 99%
[10]
  viability, T/C: 88.2%
Second compound 0.1 µM, first compound 0.316 µM
  viability, T/C: 80.8%
Second compound 0.1 µM, first compound 1 µM
  viability, T/C: 84.6%
Second compound 0.1 µM, first compound 3.16 µM
  viability, T/C: 72.3%
Second compound 0.1 µM, first compound 10 µM
  viability, T/C: 62.6%
[11]
  viability, T/C: 93%
[12]
  viability, T/C: 95.1%
Second compound 0.316 µM, first compound 0.316 µM
  viability, T/C: 90.3%
Second compound 0.316 µM, first compound 1 µM
  viability, T/C: 72.6%
Second compound 0.316 µM, first compound 3.16 µM
  viability, T/C: 78%
Second compound 0.316 µM, first compound 10 µM
  viability, T/C: 55.8%
[13]
  viability, T/C: 112%
[14]
  viability, T/C: 92.3%
Second compound 1 µM, first compound 0.316 µM
  viability, T/C: 93.3%
Second compound 1 µM, first compound 1 µM
  viability, T/C: 76.5%
Second compound 1 µM, first compound 3.16 µM
  viability, T/C: 76.6%
Second compound 1 µM, first compound 10 µM
  viability, T/C: 58.1%
[15]
  viability, T/C: 101%
[16]
  viability, T/C: 99.2%
Second compound 3.16 µM, first compound 0.316 µM
  viability, T/C: 93.6%
Second compound 3.16 µM, first compound 1 µM
  viability, T/C: 82.4%
Second compound 3.16 µM, first compound 3.16 µM
  viability, T/C: 68.3%
Second compound 3.16 µM, first compound 10 µM
  viability, T/C: 60.7%
[17]
  viability, T/C: 111%
[18]
  viability, T/C: 114%
Second compound 10 µM, first compound 0.316 µM
  viability, T/C: 89.1%
Second compound 10 µM, first compound 1 µM
  viability, T/C: 84.7%
Second compound 10 µM, first compound 3.16 µM
  viability, T/C: 81.8%
Second compound 10 µM, first compound 10 µM
  viability, T/C: 58.5%

## CC[C@@]1(O)C(=O)OCc2c1cc1n(c2=O)Cc2cc3c(CN(C)C)c(O)ccc3nc2-1
Compound 0.000316 µM
  viability, T/C: 120% and 108% and 112%
Compound 0.001 µM
  viability, T/C: 101% and 93.5% and 105%
Compound 0.00316 µM
  viability, T/C: 97% and 95.4% and 103%
Compound 0.01 µM
  viability, T/C: 81.7% and 76.8% and 84.1%
Compound 0.0316 µM
  viability, T/C: 20% and 13.8% and 24.2%
Compound 0.1 µM
  viability, T/C: 17.1% and 10.5% and 14.8%
Curve of compound
  IC50: 18.2 nM and 16.3 nM and 19.3 nM

## Cn1ncnc1[C@H]1c2n[nH]c(=O)c3cc(F)cc(c23)N[C@@H]1c1ccc(F)cc1 + Cc1cccc(N(C)C(=O)C2C(O)CCN2c2nc(C)cc(C(F)(F)F)c2C#N)c1
[1]
  IC50: > 100 nM
[2]
  IC50: > 100 nM
[3]
  IC50: > 100 nM
[4]
  IC50: > 100 nM
[5]
  IC50: > 100 nM
[6]
  IC50: > 100 nM
Second compound 0.0316 µM, first compound 0.000316 µM
  viability, T/C: 109%
Second compound 0.0316 µM, first compound 0.001 µM
  viability, T/C: 97%
Second compound 0.0316 µM, first compound 0.00316 µM
  viability, T/C: 91.8%
Second compound 0.0316 µM, first compound 0.01 µM
  viability, T/C: 96.1%
[7]
  viability, T/C: 108%
[8]
  viability, T/C: 89.6%
Second compound 0.1 µM, first compound 0.000316 µM
  viability, T/C: 106%
Second compound 0.1 µM, first compound 0.001 µM
  viability, T/C: 100%
Second compound 0.1 µM, first compound 0.00316 µM
  viability, T/C: 95.6%
Second compound 0.1 µM, first compound 0.01 µM
  viability, T/C: 97.2%
[9]
  viability, T/C: 94.3%
[10]
  viability, T/C: 90.1%
Second compound 0.316 µM, first compound 0.000316 µM
  viability, T/C: 102%
Second compound 0.316 µM, first compound 0.001 µM
  viability, T/C: 104%
Second compound 0.316 µM, first compound 0.00316 µM
  viability, T/C: 98.5%
Second compound 0.316 µM, first compound 0.01 µM
  viability, T/C: 97.6%
[11]
  viability, T/C: 98.5%
[12]
  viability, T/C: 85.2%
Second compound 1 µM, first compound 0.000316 µM
  viability, T/C: 110%
Second compound 1 µM, first compound 0.001 µM
  viability, T/C: 102%
Second compound 1 µM, first compound 0.00316 µM
  viability, T/C: 103%
Second compound 1 µM, first compound 0.01 µM
  viability, T/C: 105%
[13]
  viability, T/C: 91.7%
[14]
  viability, T/C: 91.4%
Second compound 3.16 µM, first compound 0.000316 µM
  viability, T/C: 105%
Second compound 3.16 µM, first compound 0.001 µM
  viability, T/C: 119%
Second compound 3.16 µM, first compound 0.00316 µM
  viability, T/C: 103%
Second compound 3.16 µM, first compound 0.01 µM
  viability, T/C: 108%
[15]
  viability, T/C: 97.2%
[16]
  viability, T/C: 85.6%
Second compound 10 µM, first compound 0.000316 µM
  viability, T/C: 107%
Second compound 10 µM, first compound 0.001 µM
  viability, T/C: 96%
Second compound 10 µM, first compound 0.00316 µM
  viability, T/C: 97.5%
Second compound 10 µM, first compound 0.01 µM
  viability, T/C: 91.8%
[17]
  viability, T/C: 101%
[18]
  viability, T/C: 85%
